Assay results: patent EP4748841A1, “BICYCLO[5,6] IMIDAZOLE PYRIMIDONE DERIVATIVE AND PREPARATION METHOD THEREFOR AND USE THEREOF” (Shujing Biopharma Co., Ltd, priority 2023, dated 2025)

Biological target: T1, Lp-PLA2 (Homo sapiens, UniProt Q13093)
T1 construct: from tissue; host or cells: pooled (mixed) human plasma
T1 sequence (Q13093 22-441): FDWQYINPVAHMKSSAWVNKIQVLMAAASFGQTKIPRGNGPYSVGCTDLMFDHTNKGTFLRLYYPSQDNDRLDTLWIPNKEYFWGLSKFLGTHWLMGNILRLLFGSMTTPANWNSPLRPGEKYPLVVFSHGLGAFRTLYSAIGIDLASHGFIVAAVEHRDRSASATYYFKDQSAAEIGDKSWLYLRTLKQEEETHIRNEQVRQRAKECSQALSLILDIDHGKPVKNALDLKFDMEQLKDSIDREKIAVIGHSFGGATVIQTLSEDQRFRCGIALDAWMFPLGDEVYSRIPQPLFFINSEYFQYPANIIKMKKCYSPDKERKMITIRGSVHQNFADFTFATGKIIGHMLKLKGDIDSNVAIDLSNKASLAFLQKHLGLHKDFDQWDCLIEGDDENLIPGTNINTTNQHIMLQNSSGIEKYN
Test: Inhibitory activity against Lp-PLA2 in human plasma (Thio-PAF assay)
Format: biochemical
Conditions: 2-thio-PAF substrate, 30 min pre-incubation
Source text: The literature reports that 2-Thio-PAF, commercially available from Cayman Chemical, is a substrate for PAF hydrolase (PAF-AH). After its cleavage by PAF-AH, the free thiol released at the sn-2 position can react with 7-diethylamino-3-(4'-maleimidophenyl)-4-methylcoumarin (CPM), resulting in increased fluorescence. Thus, Lp-PLA2 inhibitors can prevent this cleavage, and no increase in fluorescence is observed. In this experiment, the human plasma assay employed the same thioester analog of PAF as described in the recombinant human Lp-PLA2 assay described above.
• (1) The Thio-PAF assay was performed as a quenched 75 µL assay. A compound source plate was prepared by preparing 1:4 (v/v) serial diluents of the compounds in pure DMSO in a 96-well microplate. • (2) 1 µL of each test compound from the compound source plate was transferred into a 96-well microplate containing 40 µL of pre-thawed mixed human plasma by a Rainin multichannel pipette, and the plasma was thawed at room temperature and centrifuged at 2000 rpm for 10 min. The plate was shaken on a microplate shaker for 2 min for uniform mixing. • (3) After 30 min of pre-incubation at room temperature, 10 µL of a substrate solution was added sequentially to the 96-well microplate described above by a Rainin multichannel pipette. The substrate solution contained 2.5 mM 2-thio-PAF (from an ethanol mother liquor), 32 µM CPM (from a DMSO mother liquor), and 3.2 mM N-ethylmaleimide (freshly prepared in DMSO for each experiment) in assay buffer (pH 7.4) consisting of 50 mM HEPES, 150 mM NaCl, and 1 mM CHAPS. After the addition was completed, the plate was immediately shaken for 2 min, and the reaction time for the substrate was 4 min in total. After the reaction was completed, the reaction was quenched with 25 µL of an aqueous solution of 5% trifluoroacetic acid. The plate was centrifuged at 1000 rpm for 1 min. • (4) The FLINT signal (FLINT380/480) was read using a microplate reader. • (5) IC50 data, curve fitting, and QC analyses were performed using GraphPad Prism 8.0 and Excel.

IC50 [nM]	SMILES
16.4	O=c1nc(OCc2cc(F)c(Oc3ccnc(C(F)(F)F)c3)c(F)c2)cc2n1C[C@H]1CCCN21 [Comparative Example 1, reference compound]
3.3	O=c1nc(OCc2cc(F)c(Oc3ccnc(C(F)(F)F)c3)c(F)c2)cc2n1C[C@H]1CCN21 [Example 34-R]
